Columns and labels:
RL target cells = assay: Co-culture of tumor cells and CAR T cells, venetoclax added at initiation or 24, 48 or 72 hours later (Example 9): tumor cell killing; format: cell-based, human
Description: FIGS. 14A and 14B show the number of CD3+CAR+ T cells and RL target cells, respectively, following a 6-day co-culture. Various concentrations of an exemplary BCL2 inhibitor were provided in the co-culture at its initiation, or 24, 48, or 72 hours after the initiation of co-culture.
Thus, in some cases, the cytotoic effects of a BCL2 inhibitor, e.g. venetoclax, and a T cell therapy (e.g. CAR T cells) may be synergistic to result in cell death of cells otherwise resistant to treatment with the T cell therapy alone. In some cases, administration of the inhibitor, e.g. venetoclax, may sensitize otherwise resistant cancer cells to CAR T cell-mediated killing when it is administered within or at about 7 days after administration of the cell therapy.

SUDHL6 = assay: NucLight Red target cell killing by live cell imaging; format: cell-based; settings: venetoclax alone, 200 nM
Description: (§1) The cytolytic activity of anti-CD19 CAR T cells against two additional CD19-expressing lymphoma target cells lines, SUDHL6 and WSU-DLCL2, was assessed and compared to cytolytic activity against K562.CD19 target cells. Target cells were engineered with a lentiviral reagent to express NucLight Red (NLR) to permit tracking of target cells by microscopy. Anti-CD19 CAR-expressing T cell compositions were generated from two human adult donors, substantially as described above. Target cells were co-cultured with the donor-derived CAR T cell compositions for up to 120 hours at an E:T ratio of 2.5:1. Red target cell counts were tracked over time by live cell imaging and counts were normalized to the number of red target cells at baseline to determine the fold-change in target cells over time.
(§2) Anti-CD19 CAR-expressing T cell compositions were generated as described in Example 1 and were cultured with a CD19-expressing lymphoma target cell lines, either SUDHL6, WSU-DLCL2, or Granta-519 at an E:T ratio of 2.5:1. The co-cultures were carried out in the presence of 20 nM or 200 nM of the exemplary BCL2 inhibitor, venetoclax. As controls, target tumor cell lines were incubated only in the presence of the inhibitor or the anti-CD19 CAR T cells. Target cells were labeled with NucLight Red (NLR) to permit tracking of target cells by microscopy and target cell killing was monitored by the loss of fluorescent signal over time, substantially as described in Example 1.

WSU-DLCL2 = assay: as above; format: cell-based
Description: as §1, §2

Granta-519 = assay: as above; format: cell-based
Description: as §2
In a further experiment, anti-CD19 CAR-expressing T cell compositions, generated as described above, were cultured with the Granta-519 CD19-expressing lymphoma target cell line. Granta-519 cells were engineered with a lentiviral reagent to express NucLight Red (NLR) to permit tracking of target cells by microscopy. […] The anti-CD19 CAR T cells were provided in the co-cultures at the suboptimal dose, and the co-cultures were carried out in the presence of 0, 0.01, 0.1, or 1 μM of the exemplary BCL2 inhibitor venetoclax. For comparison, target tumor cell lines were incubated only in the presence of 0, 0.01, 0.1, or 1 μM of the inhibitor. Red target cell counts were enumerated by live cell imaging and tracked over time.

RL cells = assay: RL target cell co-culture with CAR T cells and venetoclax (NLR microscopy); format: cell-based; settings: with CAR T cells E:T 1:1, 0.1 venetoclax
Description: Anti-CD19 CAR-expressing T cell compositions, generated as described in Example 1, were cultured with the CD19-expressing lymphoma target cell line RL. Target cells were engineered with a lentiviral reagent to express NucLight Red (NLR) to permit tracking of the cells by microscopy. […] The anti-CD19 CART cells were co-cultured with target RL cells at an E:T ratio of 1:1, and the co-cultures were carried out in the presence of 0.1 μM of the exemplary BCL2 inhibitor venetoclax. For comparison, target cells were incubated only in the presence of the CAR T cells or 0.1 μM of the inhibitor.

RL spheroids = assay: RL spheroid 3D tumor model, co-culture for 9 days; format: cell-based
Description: The resistance of the RL cell line to CD19-directed CAR T cells was further assessed in a 3D tumor model. An anti-CD19 CAR-expressing T cell composition was generated from a human adult donor, substantially as described in Example 1. RL tumor cells engineered to express NLR were allowed to form spheroids for 72 hours, then co-cultured for 9 days with the anti-CD19 CAR T cells at an E:T ratio of 1:1. A subtherapeutic concentration of the exemplary BCL2 inhibitor venetoclax (0.1 μM) was added at the beginning of co-culture, and tumor volume was measured over time (FIG. 5B).
In a related experiment, spheroids were generated from CD19-expressing RL cells as described, and co-cultured for 9 days with anti-CD19 CAR T cells and increasing concentrations of venetoclax (0.01 μM, 0.1 μM, or 1.0 μM), or with only corresponding concentrations of venetoclax.

JeKo-1 target cells = assay: JeKo-1 target cell co-culture for 100 hours; format: cell-based
Description: Further, the cytolytic activity of anti-CD19 CAR T cells was not affected when co-cultured with JeKo-1 target cells for 100 hours in the presence of 1.0 μM venetoclax.

anti-CD19 CAR T cells = assay: Effect of serum concentration on venetoclax IC50 against CAR T cells; format: cell-based; settings: 5%, 10% or 20% serum
Description: Thus, to determine whether serum concentration may modulate the effects of venetoclax on CAR T cells, anti-CD19 CAR T cells were cultured in the presence of 5%, 10%, or 20% serum and treated with increasing concentrations of venetoclax.

CD3+ CAR T cells = assay: Delayed addition of venetoclax to RL / CAR T co-culture, CAR T cell number; format: cell-based; settings: 6 days
Description: RL target cells were co-cultured with CD19-targeting CAR T cells, generated substantially as described in Example 1, for 6 days in the absence or presence of the exemplary BCL2 inhibitor venetoclax (0.01 μM, 0.1 μM, or 1.0 μM). Venetoclax was added concurrently with co-culture or 24, 48, or 72 hours after the start of co-culture. As a control, RL target cells were cultured in the presence of venetoclax, but without CAR T cells.
After 6 days of co-culture, the number of CD3+ CAR T cells and target cells was assessed.

[1] = co-culture with anti-CD19 CAR T cells E:T 2.5:1, 20 or 200 nM venetoclax
[2] = venetoclax alone, 20 nM or 200 nM

CC1(C)CCC(CN2CCN(c3ccc(C(=O)NS(=O)(=O)c4ccc(NCC5CCOCC5)c([N+](=O)[O-])c4)c(Oc4cnc5[nH]ccc5c4)c3)CC2)=C(c2ccc(Cl)cc2)C1 [venetoclax]
antitumor effects of CAR T cells (RL target cells; inhibitor administered when activation-induced cell death of CAR T cells has peaked (e.g. 2-7 days after CAR T cells), Example 9): potent antitumor effects
sensitization of tumor cells to CAR T cell-mediated killing (RL target cells; therapeutic dose administered 48 or 72 hours after initiation of co-culture of tumor cells and CAR T cells): able to sensitize the tumor cells to CAR T cell-mediated killing
tumor cell killing (SUDHL6): killing of the sensitive tumor cell line SUDHL6 was achieved
CD19-directed CAR T cell killing (WSU-DLCL2; [1]): enhanced
tumor cell killing (WSU-DLCL2; [2]): did not substantially impact tumor cell killing
CD19-directed CAR T cell killing (Granta-519; [1]): enhanced
target cell number (Granta-519; venetoclax alone, 0.01 μM): did not substantially impact target cell number
tumor cell killing (Granta-519; [2]): did not substantially impact tumor cell killing
target cell number (Granta-519; venetoclax alone, 0.1 μM and 1.0 μM): modest effect on target cell number
target cell number (Granta-519; with anti-CD19 CAR T cells E:T 1:1, 0.01 μM venetoclax, compared to 0.01 μM inhibitor only): demonstrated a decrease in the number of target cells
target cell number / CAR T cell killing (Granta-519; with anti-CD19 CAR T cells E:T 1:1, 0.1 μM and 1.0 μM venetoclax): even greater CD19-directed CAR T cell killing
target cell killing (RL cells): sensitized to the CD19-directed CAR T cell killing
apoptosis of tumor cells (RL spheroids; combination of venetoclax and anti-CD19 CAR T cells (data not shown)): induce apoptosis of tumor cells
tumor size (RL spheroids; day 9, venetoclax 0.01, 0.1 or 1.0 μM): larger concentrations of venetoclax resulted in larger decreases in tumor size
size of RL spheroids (RL spheroids; day 9, with anti-CD19 CAR T cells, venetoclax 0.01, 0.1 or 1.0 μM, compared to venetoclax only): decreased substantially more
tumor volume (RL spheroids; with anti-CD19 CAR T cells E:T 1:1, 0.1 μM venetoclax, 9 days): resulted in decreased tumor volume
cytolytic activity of anti-CD19 CAR T cells (JeKo-1 target cells; 1.0 μM venetoclax, 100 hours): not affected
number of JeKo-1 target cells (JeKo-1 target cells; venetoclax alone): not reduced
IC50 against anti-CD19 CAR T cells (anti-CD19 CAR T cells): increase with increasing concentrations of serum
number of CD3+ CAR T cells (CD3+ CAR T cells; 0.01 μM, all time points): not observed to reduce CD3+ CAR T cell number
number of CD3+ CAR T cells (CD3+ CAR T cells; 0.1 μM or 1.0 μM added concurrently or 24 hours later): reduced
number of CD3+ CAR T cells (CD3+ CAR T cells; added 48 or 72 hours following co-culture, any concentration): a reduction in CD3+ CAR T cells was not observed
